Assay results published in the supplement of paper PMC6045584.
± gives the standard deviation of the averaged measurements.

What was measured:
SORAFENIB = compound: CNC(=O)c1cc(Oc2ccc(NC(=O)Nc3ccc(Cl)c(C(F)(F)F)c3)cc2)ccn1 [SORAFENIB]; experiment: surviving fraction relative to DMSO-only wells; higher = less growth inhibition; conditions: exposure time: 5 days
How it was run: (§1)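 A line counted only if its three screens reached replicate Pearson r >0.7 and median Z' >0.3. Tumour cells in log phase were seeded at 250–500 per well in 384-well plates and, after 24 hours, kept in continuous contact with inhibitors at 0.5, 1, 5, 10, 50, 100, 500 and 1000 nM for five days. Surviving fraction was taken from CellTiter-Glo luminescence relative to the median of DMSO-only wells.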

[1] = compound: COc1cc2ncnc(Nc3ccc(F)c(Cl)c3)c2cc1NC(=O)/C=C/CN1CCCCC1; experiment: as above; conditions: exposure time: 5 days
How it was run: as §1

Test System	surviving fraction (SORAFENIB; 0.5 nM)	surviving fraction (SORAFENIB; 1 nM)	surviving fraction (SORAFENIB; 5 nM)	surviving fraction (SORAFENIB; 10 nM)	surviving fraction (SORAFENIB; 100 nM)	surviving fraction (SORAFENIB; 1000 nM)	surviving fraction ([1]; 0.5 nM)	surviving fraction ([1]; 1 nM)	surviving fraction ([1]; 5 nM)	surviving fraction ([1]; 10 nM)	surviving fraction ([1]; 50 nM)	surviving fraction ([1]; 100 nM)	surviving fraction ([1]; 500 nM)	surviving fraction ([1]; 1000 nM)	surviving fraction (SORAFENIB; 50 nM)	surviving fraction (SORAFENIB; 500 nM)
MDAMB436 BREAST	0.966 ± 0.04	0.992 ± 0.046	0.977 ± 0.057	0.949 ± 0.085	0.961 ± 0.043	0.855 ± 0.019	0.922 ± 0.08	0.975 ± 0.077	0.895 ± 0.021	0.971 ± 0.17	0.996 ± 0.053	0.89 ± 0.11	0.771 ± 0.065	0.706 ± 0.085	–	–
LM7 BONE	0.938 ± 0.057	0.97 ± 0.048	–	1.01 ± 0.066	1.04 ± 0.054	1.05 ± 0.033	0.93 ± 0.059	0.998 ± 0.078	0.983 ± 0.063	1.06 ± 0.094	1.01 ± 0.011	0.957 ± 0.055	0.532 ± 0.063	0.287 ± 0.006	1.11 ± 0.14	–
HELA CERVIX	1.03 ± 0.022	0.982 ± 0.024	0.986 ± 0.047	0.9492 ± 0.0068	1.09 ± 0.062	–	1.07 ± 0.055	1.07 ± 0.051	1 ± 0.076	1.04 ± 0.023	1.18 ± 0.038	1.17 ± 0.025	1.19 ± 0.072	1.13 ± 0.071	1.1 ± 0.024	1.07 ± 0.055
93VU HEADNECK	0.961 ± 0.081	0.987 ± 0.091	1.12 ± 0.051	1.19 ± 0.11	1.17 ± 0.07	–	0.834 ± 0.065	0.8653 ± 0.005	0.651 ± 0.02	0.541 ± 0.12	0.465 ± 0.016	0.456 ± 0.034	0.353 ± 0.036	0.267 ± 0.025	1.22 ± 0.1	–
ZR751 BREAST	1.08 ± 0.086	1.04 ± 0.02	0.99 ± 0.056	1.02 ± 0.18	1.31 ± 0.19	1.06 ± 0.072	1.07 ± 0.11	0.919 ± 0.043	0.791 ± 0.018	0.859 ± 0.076	0.762 ± 0.095	0.768 ± 0.04	0.625 ± 0.056	0.415 ± 0.087	1.28 ± 0.042	–
S68 BREAST	–	0.963 ± 0.22	1.06 ± 0.083	1.13 ± 0.18	1.12 ± 0.27	0.895 ± 0.32	0.768 ± 0.15	1.01 ± 0.15	1.03 ± 0.27	0.764 ± 0.12	0.701 ± 0.085	0.667 ± 0.14	0.603 ± 0.033	0.256 ± 0.024	1.29 ± 0.099	1.02 ± 0.079
SCC003 HEADNECK	0.898 ± 0.11	1.05 ± 0.12	–	–	1.11 ± 0.081	–	1.01 ± 0.031	0.95 ± 0.19	0.845 ± 0.11	0.861 ± 0.082	0.554 ± 0.072	0.535 ± 0.079	0.405 ± 0.053	0.356 ± 0.031	1.12 ± 0.18	1.24 ± 0.097
22RV1 PROSTATE	0.995 ± 0.029	–	0.974 ± 0.014	0.955 ± 0.025	1.09 ± 0.064	–	1 ± 0.17	1.04 ± 0.099	0.977 ± 0.059	1 ± 0.087	1.03 ± 0.05	0.97 ± 0.063	1.02 ± 0.061	0.9 ± 0.045	1.09 ± 0.034	1.11 ± 0.043
A549 LUNG	0.994 ± 0.032	0.949 ± 0.017	1.01 ± 0.027	–	1.12 ± 0.043	1.04 ± 0.02	1.03 ± 0.089	0.985 ± 0.053	0.986 ± 0.08	0.962 ± 0.034	1.04 ± 0.066	1.02 ± 0.024	1 ± 0.044	1.02 ± 0.042	–	1.12 ± 0.055
SG43 HEADNECK	0.959 ± 0.085	1.19 ± 0.13	–	0.97 ± 0.082	1.4 ± 0.095	2.18 ± 0.21	0.807 ± 0.14	0.929 ± 0.044	0.529 ± 0.18	0.341 ± 0.057	0.199 ± 0.018	0.226 ± 0.022	0.281 ± 0.095	0.196 ± 0.057	1.18 ± 0.14	1.98 ± 0.15
JURKAT HAEMATOPOIETIC AND LYMPHOID TISSUE	1.106 ± 0.0035	1.1 ± 0.026	1.11 ± 0.039	1.11 ± 0.037	1.06 ± 0.029	0.863 ± 0.012	1.08 ± 0.037	1.06 ± 0.029	1.06 ± 0.043	1.02 ± 0.017	1.03 ± 0.026	1.04 ± 0.034	0.881 ± 0.056	0.297 ± 0.025	1.08 ± 0.023	–
143B BONE	–	1.02 ± 0.018	–	1.042 ± 0.0078	1.02 ± 0.042	0.962 ± 0.012	1.03 ± 0.027	1.006 ± 0.005	1.01 ± 0.067	1.01 ± 0.033	1.02 ± 0.018	1.01 ± 0.03	0.957 ± 0.016	0.831 ± 0.04	1.03 ± 0.06	–
SCC36 HEADNECK	–	1.02 ± 0.064	1.15 ± 0.11	1.18 ± 0.018	1.17 ± 0.056	1.18 ± 0.065	0.84 ± 0.054	0.889 ± 0.024	0.656 ± 0.059	0.618 ± 0.0085	0.432 ± 0.014	0.424 ± 0.057	0.338 ± 0.022	0.235 ± 0.013	1.18 ± 0.16	1.2 ± 0.049
SUM159 BREAST	0.909 ± 0.23	0.956 ± 0.18	–	0.936 ± 0.18	–	0.071 ± 0.043	1.08 ± 0.076	1.14 ± 0.16	1.1 ± 0.14	1.13 ± 0.2	1.06 ± 0.065	0.931 ± 0.14	1.01 ± 0.052	0.984 ± 0.017	0.997 ± 0.15	0.909 ± 0.28
HCC202 BREAST	1.23 ± 0.35	–	1.11 ± 0.18	1.02 ± 0.031	–	0.685 ± 0.15	1.1 ± 0.1	1.06 ± 0.15	0.723 ± 0.13	0.757 ± 0.14	0.373 ± 0.041	0.297 ± 0.067	0.131 ± 0.026	0.0933 ± 0.023	0.987 ± 0.055	0.897 ± 0.13
OSHN BONE	1.06 ± 0.024	1.047 ± 0.0099	1.07 ± 0.018	1.05 ± 0.015	1.06 ± 0.014	1.05 ± 0.013	1.07 ± 0.034	1.06 ± 0.044	1.08 ± 0.033	1.05 ± 0.035	1.1 ± 0.037	1.1 ± 0.027	1.06 ± 0.047	1.029 ± 0.0075	1.09 ± 0.037	1.08 ± 0.025
CADOES1 SOFT TISSUE	1.02 ± 0.062	–	0.862 ± 0.035	–	0.947 ± 0.1	0.603 ± 0.19	0.985 ± 0.058	0.938 ± 0.14	1.03 ± 0.16	0.873 ± 0.046	0.884 ± 0.07	0.896 ± 0.047	0.891 ± 0.018	0.7 ± 0.031	0.972 ± 0.15	–
SCC47 HEADNECK	1.04 ± 0.067	0.998 ± 0.071	1.08 ± 0.029	0.974 ± 0.067	1.01 ± 0.068	0.825 ± 0.028	0.927 ± 0.031	0.976 ± 0.041	0.804 ± 0.1	0.745 ± 0.028	0.625 ± 0.026	0.59 ± 0.025	0.512 ± 0.031	0.375 ± 0.039	1 ± 0.053	0.907 ± 0.065
BT20 BREAST	–	1.04 ± 0.26	1.07 ± 0.23	1.07 ± 0.23	0.951 ± 0.3	–	1.08 ± 0.071	1 ± 0.12	0.895 ± 0.015	0.934 ± 0.13	1.05 ± 0.028	0.996 ± 0.13	1.13 ± 0.045	0.809 ± 0.16	1.01 ± 0.33	–
SKBR3 BREAST	1.12 ± 0.15	1.07 ± 0.22	0.978 ± 0.087	0.951 ± 0.16	0.95 ± 0.1	1.1 ± 0.053	0.879 ± 0.038	0.983 ± 0.089	0.522 ± 0.041	0.471 ± 0.03	0.195 ± 0.0032	0.161 ± 0.017	0.145 ± 0.018	0.105 ± 0.018	0.96 ± 0.16	1.08 ± 0.23
SJSA1 BONE	1.02 ± 0.012	0.969 ± 0.036	0.985 ± 0.048	–	1.03 ± 0.041	0.967 ± 0.026	1.04 ± 0.071	1.08 ± 0.072	1.05 ± 0.053	1.09 ± 0.016	1.1 ± 0.043	1.14 ± 0.074	1.04 ± 0.072	1.01 ± 0.03	1.07 ± 0.041	1 ± 0.11
LNCAP PROSTATE	1.01 ± 0.084	–	1 ± 0.082	1.06 ± 0.08	–	0.853 ± 0.17	0.807 ± 0.074	0.828 ± 0.13	0.858 ± 0.19	0.888 ± 0.16	0.95 ± 0.043	1.02 ± 0.048	0.896 ± 0.097	0.797 ± 0.12	0.902 ± 0.23	0.887 ± 0.12
DU4475 BREAST	1.07 ± 0.35	1.05 ± 0.2	0.927 ± 0.29	0.999 ± 0.18	0.939 ± 0.46	0.769 ± 0.32	0.798 ± 0.057	0.876 ± 0.044	0.901 ± 0.12	0.987 ± 0.21	0.908 ± 0.14	1.09 ± 0.14	1.14 ± 0.19	0.985 ± 0.054	0.819 ± 0.25	0.906 ± 0.31
